Reference: patent US20240228562A1, “NOVEL LIPOCALIN MUTEINS SPECIFIC FOR CONNECTIVE TISSUE GROWTH FACTOR (CTGF)” (PIERIS PHARMACEUTICALS GMBH, priority 2021, published 2024)

Assays:
[1] = test system: CCL-206 lung fibroblasts co-cultured with primary murine Epcam-positive epithelial progenitor cells; assay: Lung organoid formation model; type: cell-based; conditions: 14 days treatment; nintedanib 100 nM; SEQ ID NO: 74 at 100 nM
Description: The effect of CTGF-targeting lipocalin muteins was analyzed using an organoid model for lung regeneration. In this model, CCL-206 lung fibroblasts are co-cultured with freshly isolated primary murine Epcam-positive epithelial progenitor cells, and the number of formed organoids is analyzed after 14 days. TGF-b1 pre-treatment of CCL-206 fibroblasts leads to an impaired organoid formation and resembles an impairment of lung regeneration as for example observed in lung disease, such as IPF. The impaired formation of organoids can be rescued by treatment with different drugs, such as nintedanib, which is used as a positive control in this model. […] Analysis of organoid numbers confirmed the impairment of organoid formation by TGF-b1 stimulation.

[2] = test system: idiopathic pulmonary fibrosis (IPF); conditions: cited from earlier work; for Decline in lung function in IPF: FDA-approved drugs for IPF; for Tolerability in IPF patients: gastrointestinal and other drug-related tolerability issues
[3] = test system: human melanoma cell lines; conditions: cited from earlier work

Compound	Effect on TGF-b1 impaired organoid formation [1]	Decline in lung function in IPF [2]	Tolerability in IPF patients [2]	Disease progression in patients suffering from IPF ([2]; phase 2 clinical trial)	Migration of human melanoma cell lines [3]
COC(=O)c1ccc2c(c1)NC(=O)/C2=C(\Nc1ccc(N(C)C(=O)CN2CCN(C)CC2)cc1)c1ccccc1 [nintedanib]	partially rescued	slowing down the decline in lung function	not well-tolerated	–	–
Cc1ccc(=O)n(-c2ccccc2)c1 [pirfenidone]	–	slowing down the decline in lung function	not well-tolerated	–	–
FG-3019/pamrevlumab: anti-CTGF monoclonal antibody in clinical trials	–	–	–	attenuated disease progression	inhibition of the migration
